Each block holds one compound with its values, some of them ahead of it.
Legend:
Format in all cases: cell-based
[1] = biological target: T1, hOCT3 (organic cation transporter 3) (Homo sapiens, UniProt O75751); assay: radioligand saturation binding/uptake in intact HEK293-hOCT3 cells, empty-vector cells as non-specific binding
T1 construct: gene SLC22A3
T1 sequence (O75751 1-556): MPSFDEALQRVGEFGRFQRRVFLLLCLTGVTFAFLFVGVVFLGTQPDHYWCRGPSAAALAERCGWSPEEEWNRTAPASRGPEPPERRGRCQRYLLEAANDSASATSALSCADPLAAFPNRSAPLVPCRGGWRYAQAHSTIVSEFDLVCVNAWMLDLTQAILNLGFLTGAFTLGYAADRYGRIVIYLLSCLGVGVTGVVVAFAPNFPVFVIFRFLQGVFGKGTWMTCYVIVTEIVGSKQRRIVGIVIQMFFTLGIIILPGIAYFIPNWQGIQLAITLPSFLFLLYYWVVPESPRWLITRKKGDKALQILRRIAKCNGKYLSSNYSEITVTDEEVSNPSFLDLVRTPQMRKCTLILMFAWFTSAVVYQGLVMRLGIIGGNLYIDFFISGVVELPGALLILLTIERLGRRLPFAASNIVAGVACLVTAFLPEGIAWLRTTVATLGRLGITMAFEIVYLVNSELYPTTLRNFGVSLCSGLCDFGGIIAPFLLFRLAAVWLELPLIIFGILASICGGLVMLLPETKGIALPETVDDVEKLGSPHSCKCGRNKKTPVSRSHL

[2] = biological target: T1, hOCT3 (organic cation transporter 3); assay: inhibition of […]FEtQ uptake in HEK293 cells stably expressing hOCT3
[3] = biological target: T2, hOCT2 (organic cation transporter 2) (Homo sapiens, UniProt O15244); assay: in vivo PET/CT blocking of […]FEtQ uptake in HEK-hOCT2 xenografts in mice
T2 construct: gene SLC22A2
T2 sequence (O15244 1-555): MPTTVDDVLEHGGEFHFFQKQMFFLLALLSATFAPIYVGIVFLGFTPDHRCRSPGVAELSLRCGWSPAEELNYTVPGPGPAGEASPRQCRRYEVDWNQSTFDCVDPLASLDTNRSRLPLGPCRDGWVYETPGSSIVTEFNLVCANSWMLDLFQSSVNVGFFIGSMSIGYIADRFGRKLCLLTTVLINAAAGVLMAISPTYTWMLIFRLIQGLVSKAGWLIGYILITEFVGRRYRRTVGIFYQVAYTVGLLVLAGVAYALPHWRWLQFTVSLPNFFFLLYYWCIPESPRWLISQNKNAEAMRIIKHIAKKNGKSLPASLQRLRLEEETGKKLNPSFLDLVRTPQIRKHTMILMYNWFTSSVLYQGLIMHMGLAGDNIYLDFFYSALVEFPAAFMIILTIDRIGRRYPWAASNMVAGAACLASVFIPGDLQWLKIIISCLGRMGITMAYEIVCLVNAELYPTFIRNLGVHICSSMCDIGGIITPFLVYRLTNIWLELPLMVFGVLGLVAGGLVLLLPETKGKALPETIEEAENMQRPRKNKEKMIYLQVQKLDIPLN

Kd [1]: 214 ± 114 µM
Structure (SMILES): FCC[n+]1cccc2ccccc21 [[18F]FEtQ]

Structure (SMILES): C[C@]12C[C@H](O)[C@H]3[C@@H](CCC4=CC(=O)CC[C@@]43C)[C@@H]1CC[C@@H]2C(=O)CO [corticosterone]
IC50 [2]: 0.05 to 0.5 µM

Structure (SMILES): CCN1/C(=C/c2ccc3ccccc3[n+]2CC)C=Cc2ccccc21 [decynium 22]
% lower peak tumor uptake at 0.075 mg/kg [3]: 40 % lower peak tumor uptake at 0.075 mg/kg

Source: article PMC9581852, “Organic Cation Transporter-Mediated Accumulation of Quinolinium Salts in the LV Myocardium of Rodents” (Molecular Imaging and Biology, 2022)
